Measurements as given in patent US8841425B2, “Cytotoxic agents comprising new maytansinoids” (ImmunoGen, Inc., priority 2003, dated 2014).
Entries after “also recorded” stand apart in the source; their conditions may differ.

Tests used:
SK-BR-3 cells = test: In vitro cytotoxicity, clonogenic assay, SK-BR-3 cells; format: cell-based, human; conditions: free maytansinoid, 72 hours exposure, read-out: IC50 towards SK-Br-3 cells
Method: (§1) The KB (ATCC CCl-17) cell line is of human epithelial origin. The SK-BR-3 (ATCC HTB-30) cell line was established from a human breast adenocarcinoma. The human colon tumor cell lines COLO 205 (ATCC CCL-222) and HT-29 (ATCC HTB 38), the human melanoma cell line A-375 (ATCC CRL 1619), the human Burkitts lymphoma cell line Ramos (ATCC CRL-1596) and the human myeloid leukemia cell line HL-60 (ATCC CCL-240) were all obtained from ATCC, Maryland. Cell lines were grown in Dulbecco's modified Eagles Medium (DMEM, Biowhittaker, Walkersville, Md.) with L-glutamine supplemented with 10% fetal bovine serum (Hyclone, Logan, Utah) and 50 μg/mL gentamycin sulfate (Life Technologies, Rockville, Md.). Cells were maintained at 36-37.5° C. in a humidified atmosphere that contained 6% CO2.
(§2) The cytotoxicity study performed used a clonogenic assay. The test cell lines were plated into 6-well culture dishes at a constant number of 1000 cells per well. […] The cultures were then fixed and stained with 0.2% crystal violet in 10% formalin/PBS and colonies were counted. Plating efficiency of non-treated cells (medium alone) was determined by dividing the number of colonies counted by the number of cells plated. Surviving fraction of cells exposed to the drugs was determined by dividing the number of colonies in wells that were exposed to the drug by the number of colonies in the control wells.

[1] = system: human melanoma cell line A-375; test: In vitro cytotoxicity, clonogenic assay, A-375 cells; format: cell-based; conditions: for IC50: free maytansinoid, 72 hours exposure, clonogenic assay, read-out: IC50 towards A-375 cells; for fold less sensitive, antigen negative A-375 cells versus COLO 205 cells: antibody-maytansinoid conjugate
Method: as §1
The cytotoxicity study performed used a clonogenic assay. The test cell lines were plated into 6-well culture dishes at a constant number of 1000 cells per well. Cells were incubated with varying concentrations (0 to 3 nM) of the various maytansinoids (free or conjugated to antibodies) for 72 hours. The medium was then aspirated from the plates and replaced with fresh medium. Cultures were allowed to grow, and form colonies, for a total of 7-10 days after plating. The cultures were then fixed and stained with 0.2% crystal violet in 10% formalin/PBS and colonies were counted. Plating efficiency of non-treated cells (medium alone) was determined by dividing the number of colonies counted by the number of cells plated. Surviving fraction of cells exposed to the drugs was determined by dividing the number of colonies in wells that were exposed to the drug by the number of colonies in the control wells.

[2] = system: human nasopharyngeal carcinoma cells; conditions: cited from earlier work
L1210 cells = L1210 cells treated in vivo; cited from earlier work
[3] = system: human B-16 melanocarcinoma system; conditions: in vivo; cited from earlier work
[4] = system: Lewis lung carcinoma system; conditions: in vivo; cited from earlier work
[5] = system: human acute lymphoblastic leukemia line CEM; conditions: in vitro; cited from earlier work
[6] = system: L1210 mouse leukemia system; conditions: in vivo; cited from earlier work
[7] = system: antigen positive COLO 205 cells; test: In vitro cytotoxicity of antibody-maytansinoid conjugates, clonogenic assay, COLO 205 cells; format: cell-based, human; conditions: antibody-maytansinoid conjugate; read-out: IC50 towards antigen positive COLO 205 cells
Method: Conjugates of cell-binding agents with maytansinoid drugs of the invention can be evaluated for their ability to suppress proliferation of various unwanted cell lines in vitro (FIG. 6). For example, cell lines such as the human colon carcinoma line COLO 205, the human melanoma cell line A-375, the human myeloid leukemia cell line HL60 can be used for the assessment of cytotoxicity of these conjugates. Cells to be evaluated can be exposed to the compounds for 24 hours and the surviving fractions of cells measured in direct assays by known methods. IC50 values can then be calculated from the results of the assays.
The KB (ATCC CCl-17) cell line is of human epithelial origin. The SK-BR-3 (ATCC HTB-30) cell line was established from a human breast adenocarcinoma. […]
as §2, with “assay.” for “assay. The test cell lines were plated into 6-well culture dishes at a constant number of 1000 cells per well.”

[8] = system: COLO 205 human colon tumor xenografts; test: In vivo efficacy against COLO 205 xenografts; parameters: species or system mouse; conditions: SCID mice, maytansinoid dose of 75 μg/kg, qd×5, intravenously
Method: (§3) Five-week-old female SCID mice (20 animals) were inoculated subcutaneously in the right flank with COLO 205 human colon carcinoma cells (1.5×10^6 cells/mouse) in 0.1 mL of serum-free medium. The tumors were grown for 11 days to an average size of 100 mm^3. The animals were then randomly divided into four groups (5 animals per group). The first group received huC242-DM1 conjugate (DM1 dose of 75 μg/kg, qd×5) administered intravenously. The second group received huC242-DM3 conjugate (DM3 dose of 75 μg/kg, qd×5) administered intravenously. The third group received huC242-DM4 conjugate (DM4 dose of 75 μg/kg, qd×5), while a fourth group of animals served as controls and received PBS using the same treatment schedule as in groups 1-3.
The sizes of the tumors were measured twice weekly and the tumor volumes were calculated with the formula: tumor volume=½(length×width×height). The weight of the animals was also measured twice per week. The tumors in the control group of mice grew to a size of nearly 900 mm^3 in 24 days.

[9] = system: HT-29 human colon tumor xenografts; test: In vivo efficacy against HT-29 xenografts; parameters: species or system mouse; conditions: SCID mice, maytansinoid dose of 75 μg/kg, qd×5, intravenously
Method: as §3, with “HT-29” for “COLO 205”
The sizes of the tumors were measured twice weekly and the tumor volumes were calculated with the formula: tumor volume=½(length×width×height). The weight of the animals was also measured twice per week. The tumors in the control group of mice grew to a size of nearly 1000 mm^3 in 35 days.

[10] = system: human HL-60 tumor xenografts; test: In vivo efficacy of huMy9-6-DM4 against HL-60 xenografts in SCID mice (FIG. 11); parameters: species or system mouse
Method: The efficacy of huMy9-6-DM4 in vivo was determined in SCID mice bearing human HL-60 tumor xenografts. HL-60 cells were injected subcutaneously and tumors were allowed to grow to an average size of 100 mm^3. Dosage is expressed as μg DM4 in the conjugate, which corresponds to an antibody dose of approximately 67 μg antibody per μg of DM4. […] The efficacy of huMy9-6-DM4 was also compared with that of huMy9-6-DM1. […] HuMy9-6-DM4 maintained the animals in complete remission (CR) for nearly sixty days, whereas animals treated with huMy9-6-DM1 relapsed after about 20 days in CR.

COc1cc2cc(c1Cl)N(C)C(=O)C[C@H](OC(=O)[C@H](C)N(C)C(=O)CCC(C)SSC)[C@]1(C)O[C@H]1[C@H](C)[C@@H]1C[C@@](O)(NC(=O)O1)[C@H](OC)/C=C/C=C(\C)C2 (some centres unmarked) [4c, N^2′-deacetyl-N^2′-(4-methyldithio-1-oxopentyl)maytansine]
IC50 (SK-BR-3 cells): 0.007 nM
IC50 [1]: 0.015 nM

COc1cc2cc(c1Cl)N(C)C(=O)CC(OC(=O)[C@@H](C)N(C)C(=O)CCC(C)(C)SSC)C1(C)OC1C(C)C1CC(O)(NC(=O)O1)C(OC)/C=C/C=C(\C)C2 (some centres unmarked) [4e, N^2′-deacetyl-N^2′-(4-methyl-4-methyldithio-1-oxopentyl)maytansine]
IC50 (SK-BR-3 cells): 0.009 nM
IC50 [1]: 0.032 nM

COc1cc2cc(c1Cl)N(C)C(=O)C[C@H](OC(=O)[C@H](C)N(C)C(C)=O)[C@]1(C)O[C@H]1[C@H](C)[C@@H]1C[C@@](O)(NC(=O)O1)[C@H](OC)/C=C/C=C(\C)C2 [maytansine, Maytansine]
inhibition of in vitro growth [2]: active inhibitor
cells accumulating in mitosis (L1210 cells): 67%
inhibitory activity [3]: significant inhibitory activity
inhibitory activity [4]: significant inhibitory activity
inhibitory concentration, as low as [5]: ≥ 10^−7 μg/ml
inhibitory activity [6]: significant inhibitory activity

B1: huC242-DM3: huC242 antibody linked to DM3 (4a), on the average 3.2-3.5 DM3 molecules per antibody molecule (conjugate, chains of the INN, looked up)
VH: QVQLVQSGAEVKKPGETVKISCKASDYTFTYYGMNWVKQAPGQGLKWMGWIDTTTGEPTYAQKFQGRIAFSLETSASTAYLQIKSLKSEDTATYFCARRGPYNWYFDVWGQGTTVTVSS
VL: DIVMTQSPLSVPVTPGEPVSISCRSSKSLLHSNGNTYLYWFLQRPGQSPQLLIYRMSNLVSGVPDRFSGSGSGTAFTLRISRVEAEDVGVYYCLQHLEYPFTFGPGTKLELK
modifications: DM3 maytansinoid conjugate
notes: huC242 antibody linked to DM3 (4a), on the average 3.2-3.5 DM3 molecules per antibody molecule
fold less sensitive, antigen negative A-375 cells versus COLO 205 cells [1]: about 500 fold
IC50 [7]: 0.013 nM
complete tumor regression lasting [8]: 45 days
tumor growth delay [9]: 28 days

B2: huC242-DM4: huC242 antibody linked to DM4 (4b), on the average 3.2-3.5 DM4 molecules per antibody molecule (conjugate, chains of the INN, looked up)
VH: QVQLVQSGAEVKKPGETVKISCKASDYTFTYYGMNWVKQAPGQGLKWMGWIDTTTGEPTYAQKFQGRIAFSLETSASTAYLQIKSLKSEDTATYFCARRGPYNWYFDVWGQGTTVTVSS
VL: DIVMTQSPLSVPVTPGEPVSISCRSSKSLLHSNGNTYLYWFLQRPGQSPQLLIYRMSNLVSGVPDRFSGSGSGTAFTLRISRVEAEDVGVYYCLQHLEYPFTFGPGTKLELK
modifications: DM4 maytansinoid conjugate
notes: huC242 antibody linked to DM4 (4b), on the average 3.2-3.5 DM4 molecules per antibody molecule
fold less sensitive, antigen negative A-375 cells versus COLO 205 cells [1]: about 500 fold
IC50 [7]: 0.011 nM
tumor response (regression, cures) [8]: cures of all the treated mice; also recorded: cures of all the treated animals
tumor growth delay [9]: 36 days

B3: huMy9-6-DM1: huMy9-6 conjugate of a previously described maytansinoid (DM1) (conjugate, chains of the INN, looked up)
VH: QVQLVESGGGVVQPGRSLRLSCAASGFTFSSFGMHWVRQAPGKGLEWVAYISSGSFTIYYADSVKGRFTISRDNSKNTLYLQMNSLRAEDTAVYYCARMRKGYAMDYWGQGTLVTVSS
VL: DVVMTQSPLSLPVTLGQPASISCRSSQIIIHSDGNTYLEWFQQRPGQSPRRLIYKVSNRFSGVPDRFSGSGSGTDFTLKISRVEAEDVGVYYCFQGSHVPHTFGQGTKVEIK
modifications: DM1 maytansinoid conjugate
time in complete remission (CR) ([10]; SCID mice, i.v. once a day for 5 days): about 20 days
tumor growth delay ([10]; subcutaneous HL-60 xenograft, equivalent dose, FIG. 11): about 48 days
